Here are results for one compound from US11752105B2, “Spray drying process with continuous preparation of spray solution” (Hovione Scientia Limited, priority 2018, dated 2023).

The data set can be described thus: Continuous solution preparation: suspension passed through series of five micro-reactors (continuous dissolution). It counts as physicochemical. The settings on record: solvent H2O; concentration 0.3 % wt. The text has this:
The resulting suspension was continuously passed through a series of five micro-reactors with microchannels having 500 micron diameter by means of an intensifier pump (MicroDeBEE) at a pressure of 1862 bar. […] The same experiment was repeated with the same setup for other pharmaceutical excipients and solvents. Trihalose is crystalline form and was used as a model for crystalline molecules to mimic API's.

Consider `CC(C)C[C@H](N)C(=O)O` [L-Leucine], for which the Continuous dissolution entry is reported as “YES”.
